What was measured:
[1] = system: epidermal ceramide synthesis; assay: Evaluation of the amount of epidermal ceramide synthesis in hairless mice; assay type: in vivo, hairless mouse (SKH1:hr/hr:BR); conditions: for Relative amount of total ceramide synthesis (%) / Relative amount of ceramide III synthesis (%): relative to untreated mice; for Relative amount of ceramide III synthesis (%): 200 μl to dorsal skin once a day for one month, ceramide III = ceramides 1 and 2
Procedure: Test Compositions 1 to 5 were obtained by preparing 30% by weight aqueous ethanol solutions containing 0, 1.0, 3.0, 5.0 and 10.0% by weight, respectively, of N-acetyl-trans-4-hydroxy-L-proline. The pH values of the aqueous solutions were adjusted to 4.5 with sodium hydroxide.
Each of Test Compositions 1 to 5 was applied at 200 μl to the entire dorsal area as the tested region of each hairless mouse (SKH1:hr/hr:BR, male, 7 week old, available from Charles River Japan, Inc.) once a day for one month. The mice were used as four animals per each group.
Before starting of the application and one month after starting of the application, epidermal lipids were extracted from the entire dorsal area as the tested region of each mouse, and the activity of N-acetyl-trans-4-hydroxy-L-proline to synthesize ceramide was evaluated by measuring the ceramide content.
The epidermal lipids were obtained by extraction with 95% ethanol and further extracting the extract with hexane:methanol (2:3), followed by drying. The resulting epidermal lipids were dissolved in chloroform and separated by using silica gel thin layer chromatography in a manner similar to the method of Imokawa et al. [Journal of Investigative Dermatology, 96, 523 (1991)], and then the ceramide content was measured using a flying-spot scanning densitometer (manufactured by Shimadzu Corporation, CS-9000).
The ceramide content was calculated in accordance with the following equation, as the relative value to the change in the amount of ceramide synthesis in untreated mice.
Relative amount of ceramide synthesis (%)=[(A1×B2)/(A2×B1)]×100
A1: Ceramide content after application in tested mice
A2: Ceramide content before application in tested mice
B1: Ceramide content after application in untreated mice
B2: Ceramide content before application in untreated mice
Since it is known that the ceramides exist in several isomer forms, the calculation was carried out on each of the amount of total ceramide synthesis and those of syntheses of various ceramide isomers. As the standards, ceramide III (consisting of ceramides 1 and 2) and ceramide IV (consisting of ceramides 4 and 5) both manufactured by Sigma wer used. Here, total ceramide means the total of ceramides 1, 2, 4 and 5, and ceramide III means the total of ceramides 1 and 2. The ceramides 1, 2, 4 and 5 correspond to the compounds 1, 2, 4 and 5, respectively, described in FIG. 2 of Journal of Lipid Research, 24, 559 (1983).

[2] = system: auricular edema in atopic dermatitis-induced model mice (Type I Allergy Model); assay: Auricular edema inhibition in atopic dermatitis-induced model mice (type I allergy model, tick extract); assay type: in vivo, NC/Nga mouse; conditions: for Relative auricular edema increase (%): 20 μl to both sides of auricle once a day from 7th day, measured on 28th day, mean ± SD, n=6
Procedure: Test Compositions 6 to 8 were obtained by preparing 30% by weight aqueous ethanol solutions containing 0, 1.0 and 3.0% by weight, respectively, of N-acetyl-trans-4-hydroxy-L-proline. The pH values of the aqueous solutions were adjusted to 4.5 with sodium hydroxide.
Atopic dermatitis using NC/Nga mice was carried out in a same manner similar to the method of Sasagawa et al. [16th Japanese Society of Disease Models (1999)]. Auricular edema was induced by intradermal injection of 20 μg of a tick (Dermatophagoides pteronyssinus) extract as the antigen into the auricle of NC/Nga mouse (male, 8 week old, available from Charles River Japan, Inc.), once a day at a predetermined time in the 1st day, 3rd day and every day from 7th days after starting of the test. Each of Test Compositions 6 to 8 was applied at 20 μl to both sides of the auricle as the tested region, 6 hours after administration of the tick extract, once a day from the 7th day after starting of the test. The mice were used as six animals per each group.
A thickness of the auricle was measured on the 28th day after starting of the test using a dial thickness gauge (G-1A, manufactured by PEACOCK), and the relative auricular edema increase (%) was calculated in accordance with the following equation.
(§1) Relative auricular edema increase (%)=[(A1×B2)/(A2×B1)]×100
(§2) A1: Thickness of auricle after passed days in tested mice
(§3) A2: Thickness of auricle at the time of starting of the test in tested mice
(§4) B1: Thickness of auricle after passed days in untreated mice
(§5) B2: Thickness of auricle at the time of starting of the test in untreated mice

[3] = system: auricular edema in atopic dermatitis-induced model mice (Type I and Type IV Allergy Models); assay: Auricular edema inhibition in atopic dermatitis-induced model mice (type I and type IV allergy models, DNCB); assay type: in vivo, NC/Nga mouse; conditions: for Relative auricular edema increase (%): 3% by weight, 20 μl to both sides of auricle once a day, mean ± SD, n=6
Procedure: Test Compositions 9 and 10 were obtained by preparing 30% by weight ethanol solutions containing 0 and 3.0% by weight, respectively, of N-acetyl-trans-4-hydroxy-L-proline. The pH values of the aqueous solutions were adjusted to 4.5 with sodium hydroxide.
Atopic dermatitis using NC/Nga mice was carried out in a manner similar to the method of Fujii et al. [Fundamentals and Clinics (Kiso-to-Rinsho), 31(8), 2693 (1997)]. Auricular edema was induced by applying 20 μl of 1.5% dinitrochlorobenzene (DNCB) to both sides of the auricle of NC/Nga mouse (male, 8 week old, available from Charles River Japan, Inc.), once a day at a predetermined time in the 1st, 3rd and 7th days after starting of the test. Each of Test Compositions 9 and 10 was applied at 20 μl to both sides of the auricle as the tested region, 6 hours after the application of DNCB and once a day every day from the 1st day after starting of the test. The mice were used as six animals per each group.
Just before the application of the test compositions to the auricle on the 11th, 12th, 14th and 17th days after starting of the test, a thickness of the auricle was measured using a dial thickness gauge (G-1A, manufactured by PEACOCK), and the relative auricular edema increase (%) was calculated in accordance with the following equation.
as §1, §2, §3, §4, §5

[4] = concentration of 1 to 3% by weight, long period of continuous use

CC(=O)N1C[C@H](O)C[C@H]1C(=O)O [N-acetyl-trans-4-hydroxy-L-proline]
Relative amount of total ceramide synthesis (%) ([1]; 1% by weight in 30% aqueous ethanol pH 4.5, 200 μl to dorsal skin once a day for one month): 218.6% | Relative amount of ceramide III synthesis (%) ([1]; 1% by weight): 239.5% | Relative amount of total ceramide synthesis (%) ([1]; 3% by weight in 30% aqueous ethanol pH 4.5, 200 μl to dorsal skin once a day for one month): 170.6% | Relative amount of ceramide III synthesis (%) ([1]; 3% by weight): 321.1% | Relative amount of ceramide III synthesis (%) ([1]; 5% by weight): 209.6% | Relative amount of ceramide III synthesis (%) ([1]; 10% by weight): 185.9% | total ceramide content in the epidermal stratum corneum [1, 4]: significant increase | ceramide III in the epidermal stratum corneum ([1]; concentration of 1 to 10% by weight, long period of continuous use): significant increase | Relative auricular edema increase (%) ([2]; 1% by weight): 120.9 ± 3.5% | Relative auricular edema increase (%) ([2]; 3% by weight): 110.1 ± 4.4% | inhibition of auricular edema caused by the type I allergy model [2, 4]: significantly inhibited | Relative auricular edema increase (%) ([3]; 11th day after starting of test): 360.1 ± 64.2% | Relative auricular edema increase (%) ([3]; 12th day after starting of test): 399.7 ± 55.9% | Relative auricular edema increase (%) ([3]; 14th day after starting of test): 429.0 ± 72.3% | Relative auricular edema increase (%) ([3]; 17th day after starting of test): 312.1 ± 50.6% | inhibition of auricular edema caused by the type I and type IV allergy models ([3]; concentration of 3% by weight, long period of continuous use): significantly inhibited

Reference: patent US20030185864A1, “Preventives or remedies for atopic dermatitis” (priority 2000, published 2003)
